Reference: the NIST ThermoML archive (doi:10.1016/j.jct.2010.12.021)

Tests used:
[1] = for viscosity / mass density: 101.33 kPa, Liquid; for viscosity: Falling or rolling sphere viscometry; for mass density: Vibrating tube method
[2] = Molar enthalpy of transition or fusion; settings: Crystal; DSC

CCCCCC[n+]1cccc2ccccc21.O=S(=O)([N-]S(=O)(=O)C(F)(F)F)C(F)(F)F [1-hexylquinolinium bis(trifluoromethylsulfonyl)amide]
[1]
Settings	mass density [kg/m3]	viscosity [mPa·s]
323.15 K	1365.94	100.1
328.15 K	1361.65	77.97
333.15 K	1357.35	61.78
338.15 K	1353.06	50.09
343.15 K	1348.77	41.08
348.15 K	1344.52	34.22

Settings	Normal melting temperature [°C]
[1], Crystal, DTA	44.1

Settings	Molar enthalpy of transition or fusion [kcal/mol]
[2]	15.2
